Measurements from US20110130428A1, “Sublingual Compositions Comprising (2S) - (4E) -N-Methyl-5- (3- (5-Isopropoxypyridin) YL)-4-Penten-2-Amine” (ASTRAZENECA AB, priority 2008, published 2011).
Read-outs that look alike come from different tables or passages of the source. Values belong to the molecule of their own block, whether it stands above or below them.

Tests used:
[1] = male, beagle, dog, in vivo, 13 mg
Description: (§3) Two male Beagle dogs weighing 13-15 kg were used in the study. At one occasion the dogs were administered the sublingual composition under the tongue (i.e. as intended) and at the other occasion, after a washout period of 7 days, they were given the sublingual composition orally (i.e. into the stomach by gavage together with 40 ml of water).
(§4) The dogs were fasted overnight and until four hours after dose administration. Water was allowed ad lib until one hour before dosing and after three hours following dosing. To minimize the chance of swallowing during the sublingual study occasion, the dogs were anesthetized by intravenous bolus injection of Diprivan (10 mg/ml, AstraZeneca, Sweden) 0.8-1 ml/kg, followed by intubation, connection to a respiratory ventilator (Servo ventilator 900C, Siemens-Elema AB, Sweden) and capnograph (RespSense, MedAir AB, Sweden) and given additional anesthesia with 1.5% Isofluran (Isoba Vet., Schering-Plough AB, Sweden). The dogs were kept anesthetized for one hour after the administration of the sublingual composition under the tongue. The dogs were not anesthetized during the oral administration occasion.
(§5) Venous blood samples (2 mL) were collected before (0) and after 5, 15, 30, 45 minutes, 1.0, 1.5, 2.0, 3.0, 4.0, 6.0 and 8.0 hours after dosing. The samples were collected into vacuum tubes (BD Vacutainer K2-EDTA, Becton&Dickinson AB, Sweden), placed on ice and centrifuged for 10 minutes (4° C., 1500 g) within 30 minutes after sampling. The plasma was then transferred to 1.8 ml Nunc Cryo tubes (InterMed A/S, Denmark) and frozen (−20° C.) pending analysis.
(§6) The plasma samples (50 μL) were analyzed for Compound A and its metabolite Compound B by a standard LC-MS/MS analytical method. The determinations of the concentration of Compound A and Compound B in plasma was performed by liquid-liquid extraction followed by reversed-phase liquid chromatography and tandem mass spectrometry. Determinations of both Compound A and Compound B were performed in the range 0.8 to 200 nmol/L. Samples outside the range of determination were diluted up to 10 times. Quality control samples at three concentrations were interspersed with the study samples at 2.40, 16.0 and 160 nmol/L. The internal standard used in the assay was Deuterium labeled Compound A (AstraZeneca R&D, Sweden).
(§7) Exposure of animals to Compound A and it's metabolite Compound B expressed as area under the curve from time zero to the last sampling time, AUC(0-8 h), was obtained by means of non compartmental analysis in WinNonlin (version 4.0, Pharsight Corporation, USA). The maximum concentration, Cmax, and time of maximum concentration, Tmax, were direct observations from the plasma concentration versus time data. AUC(0-8 h) was calculated by means of the linear up-log down method. The area under the curve from zero to infinity, AUC, was calculated in a similar manner, with extrapolation from time of the last observed concentration, tlast, to infinity by adding the ratio of Cpred (predicted plasma concentration at tlast) and terminal slope factor. The terminal slope factor and subsequently the terminal half life (T1/2) were estimated in WinNonlin by log linear regression of the terminal phase (4 data points were used) of the plasma concentration time curve.

in vivo = details: male, beagle, dog, 13 mg; for AUC(0-t): AUC (0-8 h)
Description: as §3, §4, §5, §6, §7

[2] = tested on: NNR subtypes that characterize the human ganglia; assay: Nicotinic function in adrenal chromaffin tissue; assay type: cell-based; details: ganglionic NNR subtypes
Description: (§1) It is advantageous that the treatment or prevention of diseases, disorders and conditions occurs without appreciable adverse side effects (e.g., significant increases in blood pressure and heart rate, significant negative effects upon the gastro-intestinal tract, and significant effects upon skeletal muscle). […] Thus, Compound A is capable of treating and/or preventing diseases, disorders and conditions without eliciting significant side effects associated with activity at ganglionic and neuromuscular sites.

[3] = Beagle dogs, cited from earlier work
[4] = Intestinal permeability (fraction of an oral dose absorbed); assay type: in vivo
Description: (§2) Thus, the dissolution and intestinal permeability is not the reason for the observed high intersubject variability in plasma concentrations of Compound A.

[5] = Solubility / Biopharmaceutical Classification System (BCS) class; assay type: physicochemical
Description: as §2

[6] = dose range 2 to 320 mg, healthy volunteers; cited from earlier work
muscle-type NNRs = assay: Nicotinic function in cell preparations expressing muscle-type NNRs; assay type: cell-based; details: skeletal muscle NNR
Description: as §1

[7] = Animal study: plasma pharmacokinetics of Compound A and metabolite Compound B after sublingual or oral administration of the Compound A solid composition; details: for Cmax, relative difference in exposure sublingual compared to oral / AUC, relative difference in exposure sublingual compared to oral: 100*sublingual value/oral value; for AUC, relative difference in exposure sublingual compared to oral: AUC for Compound A; for AUC(0-t) / AUC / Cmax / Tmax / half-life / concentration at 5 min: male, beagle, dog, plasma, 13 mg; for AUC(0-t): AUC (0-8 h); for AUC(0-t) / AUC / Cmax / Tmax / half-life: Example 6 tablet; for AUC: zero to infinity; for half-life: T½; for concentration at 5 min: plasma concentration at 5 minutes
Description: as §3, §4, §5, §6, §7

[8] = Sublingual, Subject 1, anesthetized dog, 13 mg Compound A
[9] = Sublingual, Subject 2, anesthetized dog, 13 mg Compound A
[10] = po, Oral (gavage), Subject 1, dog, 13 mg Compound A
[11] = po, Oral (gavage), Subject 2, dog, 13 mg Compound A

SMILES: CC(C)Oc1cncc(/C=C/C[C@H](C)N)c1 [Compound B, (4E)-5-(3-(5-isopropoxypyridin)yl)-4-penten-2-amine]
AUC (0-8 h) [1]: 0.59 µM·h
Cmax [1]: 110 nM
Tmax [1]: 6 h
decrease of exposure (Cmax, AUC 0-8 h) following sublingual compared to oral administration of Compound A [1]: 30-70%
AUC (0-8 h) ([1]; po): 1 µM·h
Cmax ([1]; po): 230 nM
Tmax ([1]; po): 1 h
AUC(0-t) (in vivo): 0.51 µM·h
Cmax (in vivo): 99 nM
Tmax (in vivo): 4 h
AUC(0-t) (in vivo; po): 1 µM·h
Cmax (in vivo; po): 210 nM
Tmax (in vivo; po): 1.5 h

intestinal permeability: oral dose absorbed [4]: more than 90%
Biopharmaceutical Classification System (BCS) class [5]: Class I
solubility ([5]; highest dose strength is easily dissolved in 250 ml of aqueous media at all physiological pH values): very good solubility
Cmax, relative difference in exposure sublingual compared to oral ([7]; Subject 1, dog): 740 % difference
AUC, relative difference in exposure sublingual compared to oral ([7]; Subject 1, dog): 550 % difference
Cmax, relative difference in exposure sublingual compared to oral ([7]; Subject 2, dog): 510 % difference
AUC, relative difference in exposure sublingual compared to oral ([7]; Subject 2, dog): 520 % difference
AUC(0-t) [7, 8]: 2 µM·h
AUC(0-t) [7, 9]: 1.5 µM·h
AUC [7, 8]: 2.1 µM·h
AUC [7, 9]: 1.5 µM·h
Cmax [7, 8]: 1400 nM
Cmax [7, 9]: 610 nM
Tmax [7, 8]: 0.5 h
Tmax [7, 9]: 1 h
half-life [7, 8]: 1.3 h
half-life [7, 9]: 1.4 h
concentration at 5 min ([7]; other: sublingual, 5 minutes after sublingual administration, Subject 1, dog): ~200 nM
concentration at 5 min ([7]; other: sublingual, 5 minutes after sublingual administration, Subject 2, dog): ~60 nM
AUC(0-t) [7, 10]: 0.37 µM·h
AUC(0-t) [7, 11]: 0.28 µM·h
AUC [7, 10]: 0.38 µM·h
AUC [7, 11]: 0.29 µM·h
Cmax [7, 10]: 190 nM
Cmax [7, 11]: 120 nM
Tmax ([7]; po, Oral (gavage), Subject 1, dog, 13 mg (as base) Compound A hydroxybenzoate salt): 0.75 h
Tmax [7, 11]: 1 h
half-life [7, 10]: 1.3 h
half-life [7, 11]: 1.3 h
concentration at 5 min ([7]; po, 5 minutes after oral administration, Subject 1, dog): ~2 nM
concentration at 5 min ([7]; po, 5 minutes after oral administration, Subject 2, dog): ~1.5 nM
SMILES: CN[C@@H](C)C/C=C/c1cncc(OC(C)C)c1 [Compound A, (2S)-(4E)-N-methyl-5-(3-(5-isopropoxypyridin)yl)-4-penten-2-amine]
ability to elicit nicotinic function in adrenal chromaffin tissue [2]: lack of ability to elicit nicotinic function
oral bioavailability ([3]; oral): about 30%
total plasma clearance relative to hepatic blood flow [3]: markedly higher than the hepatic blood flow
degree of exposure after oral administration [6]: intersubject variability in the degree of exposure
ability to elicit nicotinic function in cell preparations expressing muscle-type NNRs (muscle-type NNRs): lack of ability to elicit nicotinic function
